Experimental data as given in US20180303810A1, “Nimodipine Water-Soluble Derivative, And Preparation Method And Use Thereof” (Guangzhou Henovcom Bioscience Co., Ltd., priority 2015, published 2018).
≈ marks a conversion by molar mass, not a printed value. Like-named read-outs stand apart in the source and are kept apart here.

Legend:
[1] = Release rate into plasma (conversion into Nimodipine); format: in vitro ADME; conditions: rat, rat anticoagulated plasma, 37° C., HPLC
Method: A portion of compound 6 was throughly mixed with rat anticoagulated plasma and incubated at 37° C. The drug was extracted with acetonitrile at different time points for HPLC analysis.
The compound sample prepared according to the above examples was dissolved in brine in an appropriate amount to formulate into a stock solution between 0.3 and 0.4 mg/mL. 20 μL of stock solution was added into the rat anticoagulated plasma previously incubated at 37° C. for 2 mins, which were throughly mixed, and incubated at 37° C. 100 μL of samples were taken at different time points, and an equal amount of acetonitrile was added to precipitate proteins, then centrifugated and the supernatant was sampled for HPLC analysis.

Solubility in water = format: physicochemical; conditions: pure water, thermodynamic from solid
Method: The compound sample prepared according to the above examples was accurately weighed in an appropriate amount, and pure water was added dropwise with a microsyringe while shaking until the solution became clear. The amounts of the sample and pure water were recorded and converted into mg/mL, as the solubility of the sample. The result was shown in the following table, and the original drug, i.e. Nimodipine, was used as a control.

[2] = read-out: half-life for converting compound into Nimodipine in blood (converted)
[3] = read-out: release rate into plasma t1/2
[4] = water at room temperature, read-out: solubility in water

Row | SMILES | half-life [1, 2] [h] | half-life [1, 3] [h] | solubility (Solubility in water; read-out: solubility) [mg/mL] | solubility (Solubility in water; [4]) [mg/mL]
1 | COCCOC(=O)C1=C(C)N(C(=O)OCOC(=O)/C=C/C(=O)O)C(C)=C(C(=O)OC(C)C)C1c1cccc([N+](=O)[O-])c1 (centres unmarked) [Compound 6] | ~1.5 | ~1.5 | > 50 | 120 (≈ 203 mM)
2 | COCCOC(=O)C1=C(C)N(C(=O)OCOP(=O)(O)O)C(C)=C(C(=O)OC(C)C)C1c1cccc([N+](=O)[O-])c1 (centres unmarked) [Compound 8] | ~1.5 | < 1.5 | > 50 | 105 (≈ 183 mM)
3 | COCCOC(=O)C1=C(C)N(COP(=O)(O)O)C(C)=C(C(=O)OC(C)C)C1c1cccc([N+](=O)[O-])c1 (centres unmarked) [Compound 12] | < 0.5 | < 0.5 | > 50 | 80 (≈ 151 mM)
4 | COCCOC(=O)C1=C(C)N(C(=O)OCOC(=O)[C@@H](N)CC(C)C)C(C)=C(C(=O)OC(C)C)C1c1cccc([N+](=O)[O-])c1.Cl (some centres unmarked) [Compound 20] |  | < 0.5 | > 50 | 
5 | COCCOC(=O)C1=C(C)N(C(=O)OC(C)OC(=O)[C@H](C)N)C(C)=C(C(=O)OC(C)C)C1c1cccc([N+](=O)[O-])c1.Cl (some centres unmarked) [Compound 23] |  | < 0.5 | > 50 | 
6 | COCCOC(=O)C1=C(C)N(C(=O)OC(C)OC(=O)/C=C/C(=O)[O-])C(C)=C(C(=O)OC(C)C)C1c1cccc([N+](=O)[O-])c1.[K+] (centres unmarked) [Compound 24] |  | < 1 | > 50 | 
7 | COCCOC(=O)C1=C(C)N(C(=O)OC(C)OC(=O)CCCN)C(C)=C(C(=O)OC(C)C)C1c1cccc([N+](=O)[O-])c1.Cl (centres unmarked) [Compound 28] |  | < 0.5 | > 50 | 
8 | COCCOC(=O)C1=C(C)N(C(=O)OCOC(=O)C2CCNCC2)C(C)=C(C(=O)OC(C)C)C1c1cccc([N+](=O)[O-])c1.Cl (centres unmarked) [Compound 32] |  | < 0.5 | > 50 | 
9 | COCCOC(=O)C1=C(C)N(C(=O)OCOC(=O)CC2CCNCC2)C(C)=C(C(=O)OC(C)C)C1c1cccc([N+](=O)[O-])c1.Cl (centres unmarked) [Compound 38] |  | < 0.5 | > 50 | 
10 | COCCOC(=O)C1=C(C)N(C(=O)OCOC(=O)/C=C/C(=O)[O-])C(C)=C(C(=O)OC(C)C)C1c1cccc([N+](=O)[O-])c1.[Na+] (centres unmarked) [Compound 39] |  | < 1 | > 50 | 
11 | COCCOC(=O)C1=C(C)NC(C)=C(C(=O)OC(C)C)C1c1cccc([N+](=O)[O-])c1 (centres unmarked) [Nimodipine] |  |  | 0.003 (≈ 0.00717 mM) | 

The next lines start with the values.

Row | half-life [1, 2] [h] | half-life [1, 3] [h] | solubility (Solubility in water; read-out: solubility) [mg/mL] | solubility (Solubility in water; [4]) [mg/mL] | SMILES
12 | ~2.5 | ~2.5 | > 50 | 230 (≈ 371 mM) | COCCOC(=O)C1=C(C)N(C(=O)OCOC(=O)[C@@H](N)CCCCN)C(C)=C(C(=O)OC(C)C)C1c1cccc([N+](=O)[O-])c1 (some centres unmarked) [Compound 9]
13 |  | < 0.5 | > 50 |  | CNCC(=O)OCOC(=O)N1C(C)=C(C(=O)OCCOC)C(c2cccc([N+](=O)[O-])c2)C(C(=O)OC(C)C)=C1C.Cl (centres unmarked) [Compound 16]
14 |  | < 0.5 | > 50 |  | COCCOC(=O)C1=C(C)N(C(=O)OCOC(=O)[C@H](C)N)C(C)=C(C(=O)OC(C)C)C1c1cccc([N+](=O)[O-])c1.Cl (some centres unmarked) [Compound 18]
15 |  | < 0.5 | > 50 |  | COCCOC(=O)C1=C(C)N(C(=O)OCOC(=O)CCN)C(C)=C(C(=O)OC(C)C)C1c1cccc([N+](=O)[O-])c1.Cl (centres unmarked) [Compound 26]
16 |  | < 0.5 | > 50 |  | COCCOC(=O)C1=C(C)N(C(=O)OCOC(=O)CCCN)C(C)=C(C(=O)OC(C)C)C1c1cccc([N+](=O)[O-])c1.Cl (centres unmarked) [Compound 30]
17 |  | < 0.5 | > 50 |  | COCCOC(=O)C1=C(C)N(C(=O)OCOC(=O)CC[C@H](N)C(N)=O)C(C)=C(C(=O)OC(C)C)C1c1cccc([N+](=O)[O-])c1.Cl (some centres unmarked) [Compound 41]
